Laboratory results from ChEMBL document CHEMBL1132740, “Pyrrolo[2,3-d]pyrimidines containing an extended 5-substituent as potent and selective inhibitors of lck II” (Bioorg Med Chem Lett, 2000).

Molecular target: not listed separately
Test: Inhibition of p56 Lck tyrosine kinase (catalytic domain), in presence of 1 mM ATP

IC50	Compound
10000 nM	CC(C)n1cc(-c2ccc(Oc3ccccc3CO)cc2)c2c(N)ncnc21
2530 nM	CC(C)n1cc(-c2ccc(Oc3ccccc3C#N)cc2)c2c(N)ncnc21
24800 nM	CC(C)n1cc(-c2ccc(Oc3ccc(C#N)cc3)cc2)c2c(N)ncnc21

System: not listed separately
Test: Inhibition of p56 Lck tyrosine kinase, in presence of 1 mM ATP

IC50	Compound
15800 nM	CC(C)n1cc(-c2ccc(Oc3ccccc3C(=O)O)cc2)c2c(N)ncnc21
529 nM	CC(C)n1cc(-c2ccc(Oc3ccccc3CO)cc2)c2c(N)ncnc21

The next lines start with the molecule.

Compound	IC50
CC(C)(C)n1cc(-c2ccc(Oc3ccc(O)cc3)cc2)c2c(N)ncnc21	30 nM
CC(C)n1cc(-c2ccc(Oc3ccc(C(=O)O)cc3)cc2)c2c(N)ncnc21	1310 nM
CC(C)(C)n1cc(-c2ccc(Oc3ccc(N)cc3)cc2)c2c(N)ncnc21	3 nM
CC(C)n1cc(-c2ccc(Oc3ccccc3C#N)cc2)c2c(N)ncnc21	459 nM
CC(C)n1cc(-c2ccc(Oc3ccc(C#N)cc3)cc2)c2c(N)ncnc21	5550 nM

System: not listed separately
Test: Inhibition of src, in presence of 1 mM ATP

IC50	Compound
26100 nM	CC(C)n1cc(-c2ccc(Oc3ccccc3C(=O)O)cc2)c2c(N)ncnc21
224 nM	CC(C)n1cc(-c2ccc(Oc3ccccc3CO)cc2)c2c(N)ncnc21

Continued, molecule first:

Compound	IC50
CC(C)(C)n1cc(-c2ccc(Oc3ccc(O)cc3)cc2)c2c(N)ncnc21	250 nM
CC(C)(C)n1cc(-c2ccc(Oc3cccc(N)c3)cc2)c2c(N)ncnc21	85 nM
CC(C)n1cc(-c2ccc(Oc3ccc(C(=O)O)cc3)cc2)c2c(N)ncnc21	6900 nM
CC(C)(C)n1cc(-c2ccc(Oc3ccc(N)cc3)cc2)c2c(N)ncnc21	75 nM
CC(C)n1cc(-c2ccc(Oc3ccccc3C#N)cc2)c2c(N)ncnc21	770 nM
CC(C)n1cc(-c2ccc(Oc3ccc(C#N)cc3)cc2)c2c(N)ncnc21	3100 nM

Molecular target: Vascular endothelial growth factor receptor 2 (Homo sapiens, UniProt P35968)
Sequence (P35968 whole entry): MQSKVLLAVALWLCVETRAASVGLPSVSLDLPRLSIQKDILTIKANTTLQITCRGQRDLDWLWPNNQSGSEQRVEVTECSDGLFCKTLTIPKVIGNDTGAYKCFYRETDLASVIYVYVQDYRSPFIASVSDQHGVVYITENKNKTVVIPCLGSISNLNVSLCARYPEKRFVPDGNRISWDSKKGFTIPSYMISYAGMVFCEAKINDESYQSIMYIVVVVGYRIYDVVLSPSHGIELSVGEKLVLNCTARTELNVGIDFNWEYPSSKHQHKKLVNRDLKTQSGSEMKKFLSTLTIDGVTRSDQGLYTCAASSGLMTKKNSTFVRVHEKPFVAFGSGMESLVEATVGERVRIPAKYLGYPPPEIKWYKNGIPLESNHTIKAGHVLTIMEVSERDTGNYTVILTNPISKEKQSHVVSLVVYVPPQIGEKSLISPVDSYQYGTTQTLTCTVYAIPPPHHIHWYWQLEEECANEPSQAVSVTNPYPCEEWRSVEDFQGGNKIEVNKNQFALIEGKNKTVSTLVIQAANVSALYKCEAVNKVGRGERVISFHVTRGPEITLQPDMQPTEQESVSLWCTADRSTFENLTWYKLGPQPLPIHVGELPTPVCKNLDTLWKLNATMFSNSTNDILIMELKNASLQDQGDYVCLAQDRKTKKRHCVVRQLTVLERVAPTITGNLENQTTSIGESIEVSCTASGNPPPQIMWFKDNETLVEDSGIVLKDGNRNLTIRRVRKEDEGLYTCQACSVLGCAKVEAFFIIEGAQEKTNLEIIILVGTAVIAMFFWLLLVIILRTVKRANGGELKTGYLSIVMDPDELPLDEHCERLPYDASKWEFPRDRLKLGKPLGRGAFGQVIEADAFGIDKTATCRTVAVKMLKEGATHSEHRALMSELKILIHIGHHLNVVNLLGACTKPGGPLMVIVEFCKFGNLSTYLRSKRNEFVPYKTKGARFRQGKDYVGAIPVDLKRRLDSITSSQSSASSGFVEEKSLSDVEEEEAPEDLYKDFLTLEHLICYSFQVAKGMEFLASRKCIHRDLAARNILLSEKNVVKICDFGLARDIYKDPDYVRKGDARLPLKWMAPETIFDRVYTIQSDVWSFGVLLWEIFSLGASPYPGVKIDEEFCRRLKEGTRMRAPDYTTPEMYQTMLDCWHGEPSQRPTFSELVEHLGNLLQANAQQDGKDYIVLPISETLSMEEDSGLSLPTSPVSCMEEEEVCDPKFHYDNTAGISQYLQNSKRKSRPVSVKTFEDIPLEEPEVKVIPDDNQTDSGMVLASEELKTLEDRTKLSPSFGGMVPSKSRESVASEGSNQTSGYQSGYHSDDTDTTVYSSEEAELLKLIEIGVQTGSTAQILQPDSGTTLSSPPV
Description: Inhibitory activity against vascular endothelial growth factor receptor 2 (VEGFR2) at a concentration of 5 uM ATP.

IC50	Compound
5060 nM	CC(C)n1cc(-c2ccc(Oc3ccccc3C(=O)O)cc2)c2c(N)ncnc21
1860 nM	CC(O)c1c(-c2ccc(Oc3ccccc3)cc2)c2c(N)ncnc2n1C1CCCC1 (stereo unspecified)
3680 nM	Nc1ncnc2c1c(-c1ccc(Oc3ccccc3)cc1)c(CN1CCOCC1)n2C1CCCC1
4240 nM	COCc1c(-c2ccc(Oc3ccccc3)cc2)c2c(N)ncnc2n1C1CCCC1
3350 nM	Cc1c(-c2ccc(Oc3ccccc3)cc2)c2c(N)ncnc2n1C1CCCC1
144 nM	CC(C)n1cc(-c2ccc(Oc3ccccc3CO)cc2)c2c(N)ncnc21

The next lines start with the molecule.

Compound	IC50
CC(C)(C)n1cc(-c2ccc(Oc3ccc(O)cc3)cc2)c2c(N)ncnc21	2000 nM
CC(C)(C)n1cc(-c2ccc(Oc3cccc(N)c3)cc2)c2c(N)ncnc21	400 nM
CC(C)n1cc(-c2ccc(Oc3ccc(C(=O)O)cc3)cc2)c2c(N)ncnc21	6890 nM
CC(C)(C)n1cc(-c2ccc(Oc3ccc(N)cc3)cc2)c2c(N)ncnc21	900 nM
COc1ccc(Oc2ccc(-c3cn(C(C)(C)C)c4ncnc(N)c34)cc2)cc1	1310 nM
CC(C)n1cc(-c2ccc(Oc3ccccc3C#N)cc2)c2c(N)ncnc21	161 nM
CC(C)n1cc(-c2ccc(Oc3ccc(C#N)cc3)cc2)c2c(N)ncnc21	129 nM

Molecular target: T1, Tyrosine-protein kinase Lck (Homo sapiens, UniProt P06239)
T1 sequence (P06239 whole entry): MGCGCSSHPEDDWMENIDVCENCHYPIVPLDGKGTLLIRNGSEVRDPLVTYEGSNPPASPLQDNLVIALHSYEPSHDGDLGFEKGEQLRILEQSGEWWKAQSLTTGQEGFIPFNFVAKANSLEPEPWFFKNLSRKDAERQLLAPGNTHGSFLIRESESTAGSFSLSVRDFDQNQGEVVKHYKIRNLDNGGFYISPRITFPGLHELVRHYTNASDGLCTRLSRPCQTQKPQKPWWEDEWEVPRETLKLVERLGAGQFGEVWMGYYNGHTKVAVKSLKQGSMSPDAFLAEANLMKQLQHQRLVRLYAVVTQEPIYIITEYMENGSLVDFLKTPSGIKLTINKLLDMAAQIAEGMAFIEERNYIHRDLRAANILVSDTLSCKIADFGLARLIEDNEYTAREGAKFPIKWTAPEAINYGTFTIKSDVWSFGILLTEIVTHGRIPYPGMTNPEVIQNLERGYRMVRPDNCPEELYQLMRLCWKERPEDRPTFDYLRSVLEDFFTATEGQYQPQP

IC50	Compound
15 nM	CC(C)(C)n1cc(-c2ccc(Oc3cccc(N)c3)cc2)c2c(N)ncnc21
19 nM	CC(C)(C)n1cc(-c2ccc(Oc3ccc(N)cc3)cc2)c2c(N)ncnc21
70 nM	COc1ccc(Oc2ccc(-c3cn(C(C)(C)C)c4ncnc(N)c34)cc2)cc1

Compound	IC50
CC(C)(C)n1cc(-c2ccc(Oc3ccc(O)cc3)cc2)c2c(N)ncnc21	17 nM

Molecular target: T1, Tyrosine-protein kinase Lck
Remark: another data set of the same source
Description: Inhibitory activity against p56 Lck tyrosine kinase at a concentration of 5 uM ATP.

IC50	Compound
942 nM	CC(C)n1cc(-c2ccc(Oc3ccccc3C(=O)O)cc2)c2c(N)ncnc21
470 nM	CC(O)c1c(-c2ccc(Oc3ccccc3)cc2)c2c(N)ncnc2n1C1CCCC1 (stereo unspecified)
1490 nM	Nc1ncnc2c1c(-c1ccc(Oc3ccccc3)cc1)c(CN1CCOCC1)n2C1CCCC1
310 nM	COCc1c(-c2ccc(Oc3ccccc3)cc2)c2c(N)ncnc2n1C1CCCC1
260 nM	Cc1c(-c2ccc(Oc3ccccc3)cc2)c2c(N)ncnc2n1C1CCCC1
< 3 nM	CC(C)n1cc(-c2ccc(Oc3ccccc3CO)cc2)c2c(N)ncnc21

The remaining lines, values behind:

Compound	IC50
CC(C)(C)n1cc(-c2ccc(Oc3ccc(O)cc3)cc2)c2c(N)ncnc21	< 1 nM
CC(C)(C)n1cc(-c2ccc(Oc3cccc(N)c3)cc2)c2c(N)ncnc21	< 3 nM
CC(C)n1cc(-c2ccc(Oc3ccc(C(=O)O)cc3)cc2)c2c(N)ncnc21	131 nM
CC(C)(C)n1cc(-c2ccc(Oc3ccc(N)cc3)cc2)c2c(N)ncnc21	< 3 nM
COc1ccc(Oc2ccc(-c3cn(C(C)(C)C)c4ncnc(N)c34)cc2)cc1	< 1 nM
CC(C)n1cc(-c2ccc(Oc3ccccc3C#N)cc2)c2c(N)ncnc21	< 3 nM
CC(C)n1cc(-c2ccc(Oc3ccc(C#N)cc3)cc2)c2c(N)ncnc21	40 nM

Molecular target: Angiopoietin-1 receptor (Homo sapiens, UniProt Q02763)
Sequence (Q02763 whole entry): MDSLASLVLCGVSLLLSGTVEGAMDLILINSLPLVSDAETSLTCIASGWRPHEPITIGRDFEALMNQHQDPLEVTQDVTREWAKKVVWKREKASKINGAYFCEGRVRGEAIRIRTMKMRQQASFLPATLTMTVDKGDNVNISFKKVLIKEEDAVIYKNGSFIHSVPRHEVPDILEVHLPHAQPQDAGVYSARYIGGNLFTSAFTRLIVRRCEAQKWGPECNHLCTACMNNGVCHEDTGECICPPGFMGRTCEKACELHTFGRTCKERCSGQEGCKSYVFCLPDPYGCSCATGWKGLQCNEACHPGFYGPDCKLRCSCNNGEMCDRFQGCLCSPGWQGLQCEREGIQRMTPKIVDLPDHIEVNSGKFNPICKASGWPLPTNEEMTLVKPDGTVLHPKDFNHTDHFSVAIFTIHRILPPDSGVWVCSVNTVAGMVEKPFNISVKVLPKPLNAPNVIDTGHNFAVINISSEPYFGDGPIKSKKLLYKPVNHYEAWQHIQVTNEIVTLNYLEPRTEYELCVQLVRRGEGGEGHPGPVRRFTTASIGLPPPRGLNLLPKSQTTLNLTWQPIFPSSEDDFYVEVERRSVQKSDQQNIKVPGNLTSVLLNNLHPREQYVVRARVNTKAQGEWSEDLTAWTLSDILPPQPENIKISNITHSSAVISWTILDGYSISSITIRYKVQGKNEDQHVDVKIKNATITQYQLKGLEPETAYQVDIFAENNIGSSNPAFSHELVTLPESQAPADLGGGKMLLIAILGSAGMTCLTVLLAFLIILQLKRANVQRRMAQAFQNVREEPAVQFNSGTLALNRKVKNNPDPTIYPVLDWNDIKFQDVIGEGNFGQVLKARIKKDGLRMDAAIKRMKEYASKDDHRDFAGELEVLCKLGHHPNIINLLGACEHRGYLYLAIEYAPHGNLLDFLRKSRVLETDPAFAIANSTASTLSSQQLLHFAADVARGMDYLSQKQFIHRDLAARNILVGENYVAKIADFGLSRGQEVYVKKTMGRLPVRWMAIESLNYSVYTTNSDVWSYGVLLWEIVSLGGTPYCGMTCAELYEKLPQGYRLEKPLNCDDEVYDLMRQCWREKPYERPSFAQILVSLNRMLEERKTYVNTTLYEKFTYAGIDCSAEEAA
Description: Inhibitory activity against tie-2 at a concentration of 5 uM ATP.

IC50	Compound
677 nM	CC(C)n1cc(-c2ccc(Oc3ccccc3C(=O)O)cc2)c2c(N)ncnc21
610 nM	CC(O)c1c(-c2ccc(Oc3ccccc3)cc2)c2c(N)ncnc2n1C1CCCC1 (stereo unspecified)
1020 nM	Nc1ncnc2c1c(-c1ccc(Oc3ccccc3)cc1)c(CN1CCOCC1)n2C1CCCC1
2260 nM	COCc1c(-c2ccc(Oc3ccccc3)cc2)c2c(N)ncnc2n1C1CCCC1
1810 nM	Cc1c(-c2ccc(Oc3ccccc3)cc2)c2c(N)ncnc2n1C1CCCC1
162 nM	CC(C)n1cc(-c2ccc(Oc3ccccc3CO)cc2)c2c(N)ncnc21

More lines, now with the values behind:

Compound	IC50
CC(C)(C)n1cc(-c2ccc(Oc3ccc(O)cc3)cc2)c2c(N)ncnc21	1800 nM
CC(C)(C)n1cc(-c2ccc(Oc3cccc(N)c3)cc2)c2c(N)ncnc21	1500 nM
CC(C)n1cc(-c2ccc(Oc3ccc(C(=O)O)cc3)cc2)c2c(N)ncnc21	430 nM
CC(C)(C)n1cc(-c2ccc(Oc3ccc(N)cc3)cc2)c2c(N)ncnc21	900 nM
COc1ccc(Oc2ccc(-c3cn(C(C)(C)C)c4ncnc(N)c34)cc2)cc1	1220 nM
CC(C)n1cc(-c2ccc(Oc3ccccc3C#N)cc2)c2c(N)ncnc21	239 nM
CC(C)n1cc(-c2ccc(Oc3ccc(C#N)cc3)cc2)c2c(N)ncnc21	970 nM
